According to patent publication US12178842B2, “PCSK9 antagonist compounds” (MERCK SHARP & DOHME LLC, priority 2019, dated 2024):

Key:
Type in all cases: binding
PCSK9 [1] = target: T1, PCSK9 (Homo sapiens, UniProt Q8NBP7); test: PCSK9 Alexa FRET Standard TR-FRET assay; settings: Ki calculated from IC50 and KD of AF cyclic peptide Reagent A; 0.5 nM PCSK9, 20 nM AF cyclic peptide; read-out: Alexa FRET Stdt TR-FRET
T1 construct: biotin (biotinylated); purchased
Description: A solution containing 1 nM biotinylated PCSK9+2.5 nM Lance Streptavidin Europium (Strep-Eu) is made in 50 mM HEPES pH 7.4, 0.15 M NaCl, 5 mM CaCl2, 0.01% BSA, and 0.01% Surfactant P20. A separate solution containing 40 nM of the AlexaFluor tagged cyclic peptide is made in the same buffer system. An Echo is used to transfer 0.750 ul of compound to an assay plate followed by the addition of 15 ul of PCSK9+Stept-Eu and 15 ul of AF peptide. The final assay volume is 30.750 ul containing 0.5 nM PCSK9, 1.25 nM Strep-Eu, and 20 nM AF cyclic peptide. The reaction is incubated at room temperature for at least two hours prior to fluorescence measurements using an Envision Multilabel Reader. IC50 values are determined by fitting data to a sigmoidal dose-response curve using nonlinear regression. Ki is then calculated from the Ic50 and the KD of AF cyclic peptide. Counts (B-counts) of the europium-labeled PCSK9 are followed to observe if compounds are adversely PCSK9. A fall off of the B-counts likely indicates a false positive of inhibition. Data from this procedure is reported as “A=‘numerical value’ (nanomolar)”

PCSK9 [2] = target: T1, PCSK9; test: PCSK9 Alexa FRET Plus TR-FRET assay
Description: A separate solution containing 1920 nM of the AlexaFluor tagged cyclic peptide is made in the same buffer system. […] The reaction is incubated at room temperature for at least two hours prior to fluorescence measurements using an Envision Multilabel Reader. IC50 values are determined by fitting data to a sigmoidal dose-response curve using nonlinear regression. Ki is then calculated from the Ic50 and the KD of AF cyclic peptide. Counts (B-counts) of the europium-labeled PCSK9 are followed to observe if compounds are adversely affecting PCSK9. A fall off of the B-counts is likely indicates a false positive of inhibition. Data from this procedure is reported as “P=‘numerical value’ (nanomolar)”

PCSK9 [3] = target: T1, PCSK9; test: PCSK9 Alexa FRET Ultra TR-FRET assay
Description: A separate solution containing 1920 nM of the AlexaFluor tagged cyclic peptide is made in the same buffer system. […] The reaction is incubated at room temperature for at least two hours prior to fluorescence measurements using an Envision Multilabel Reader. IC50 values are determined by fitting data to a sigmoidal dose-response curve using nonlinear regression. Ki is then calculated from the Ic50 and the KD of AF cyclic peptide. Counts (B-counts) of the europium-labeled PCSK9 are followed to observe if compounds are adversely affecting PCSK9. A fall off of the B-counts is likely indicates a false positive of inhibition. Data from this procedure is reported as “Ki Ultra=‘numerical value’ (data reported is nanomolar)”

[4] = Ki calculated from IC50 and KD of AF cyclic peptide Reagent B, 0.5 nM PCSK9, 960 nM AF cyclic peptide, read-out: Alexa FRET Plus TR-FRET
[5] = Ki Ultra, calculated from IC50 and KD of AF cyclic peptide, 0.5 nM PCSK9, 960 nM AF cyclic peptide, read-out: Alexa FRET Ultra TR-FRET

T1 sequence (Q8NBP7 153-692): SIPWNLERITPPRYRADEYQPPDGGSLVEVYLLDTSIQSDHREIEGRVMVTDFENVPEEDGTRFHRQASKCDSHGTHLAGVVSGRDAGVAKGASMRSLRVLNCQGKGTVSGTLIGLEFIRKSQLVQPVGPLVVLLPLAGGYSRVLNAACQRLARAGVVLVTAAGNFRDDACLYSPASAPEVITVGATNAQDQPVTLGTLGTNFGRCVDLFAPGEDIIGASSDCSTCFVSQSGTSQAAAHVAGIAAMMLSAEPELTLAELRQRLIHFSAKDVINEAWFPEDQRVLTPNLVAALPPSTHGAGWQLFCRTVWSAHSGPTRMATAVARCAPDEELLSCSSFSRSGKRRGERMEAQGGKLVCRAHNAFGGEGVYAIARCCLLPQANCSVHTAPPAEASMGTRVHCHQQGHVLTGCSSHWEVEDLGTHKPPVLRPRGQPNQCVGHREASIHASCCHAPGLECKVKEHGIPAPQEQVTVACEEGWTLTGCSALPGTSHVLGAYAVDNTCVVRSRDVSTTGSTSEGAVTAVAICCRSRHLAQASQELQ

| Ki (PCSK9 [2]; [4]) [pM] | Ki (PCSK9 [3]; [5]) [pM] | SMILES | Ki (PCSK9 [1]) [pM] | Ki (PCSK9 [2]) [pM] | Ki (PCSK9 [3]) [pM] |
| --- | --- | --- | --- | --- | --- |
|  |  | COc1ccc(C[C@@H]2NC(=O)[C@H]([C@@H](C)O)NC(=O)[C@@H]3[C@@H]4CCN3C(=O)[C@@H]3Cc5cn(c6ccc(F)cc56)CCCCCCN(Cc5ccc(cc5)CCNC(=O)[C@]5(C)CCCN5C2=O)C(=O)CCC(=O)N[C@@H](C)C(=O)N[C@H](CNC(=O)COCCOCCNC(=O)COCCOCCNC(=O)CC[C@H](NC(=O)CCCCC[N+](C)(C)CCNC(=O)CCCCCCCCCCCCCCCCC(=O)O)C(=O)O)C(=O)N[C@@H](Cc2cccc(c2)CNC(=O)CO4)C(=O)N3)cc1 [Ex-5] | < 1260 | < 6 | 7 |
|  |  | COc1ccc(C[C@@H]2NC(=O)[C@H]([C@@H](C)O)NC(=O)[C@@H]3[C@@H]4CCN3C(=O)[C@@H]3Cc5cn(c6ccc(F)cc56)CCCCCCN(Cc5ccc(cc5)CCNC(=O)[C@]5(C)CCCN5C2=O)C(=O)CCC(=O)N[C@@H](C)C(=O)N[C@H](CNC(=O)COCCOCCNC(=O)CCCCC[N+](C)(C)CCNC(=O)COCCOCCNC(=O)COCCOCCNC(=O)CC[C@H](NC(=O)CCCCCCCCCCCCCCCCC(=O)O)C(=O)O)C(=O)N[C@@H](Cc2cccc(c2)CNC(=O)CO4)C(=O)N3)cc1 [Ex-6] | < 1260 | 9 | 12 |
|  |  | COc1ccc(C[C@@H]2NC(=O)[C@H]([C@@H](C)O)NC(=O)[C@@H]3[C@@H]4CCN3C(=O)[C@@H]3Cc5cn(c6ccc(F)cc56)CCCCCCN(Cc5ccc(cc5)CCNC(=O)[C@]5(C)CCCN5C2=O)C(=O)CCC(=O)N[C@@H](C)C(=O)N[C@H](CNC(=O)CCOCCOCC[N+](C)(C)CCNC(=O)CC[C@H](NC(=O)CCCCCCCCCCCCCCCCC(=O)O)C(=O)O)C(=O)N[C@@H](Cc2cccc(c2)CNC(=O)CO4)C(=O)N3)cc1 [Ex-7] | < 1260 | 8 | 13 |
|  |  | COc1ccc(C[C@@H]2NC(=O)[C@H]([C@@H](C)O)NC(=O)[C@@H]3[C@@H]4CCN3C(=O)[C@@H]3Cc5cn(c6ccc(F)cc56)CCCCCCN(Cc5ccc(cc5)CCNC(=O)[C@]5(C)CCCN5C2=O)C(=O)CCC(=O)N[C@@H](C)C(=O)N[C@H](CNC(=O)CC[C@H](NC(=O)CCOCCOCC[N+](C)(C)CCNC(=O)COCCOCCNC(=O)COCCOCCNC(=O)CC[C@H](NC(=O)CCCCCCCCCCCCCCCCC(=O)O)C(=O)O)C(=O)O)C(=O)N[C@@H](Cc2cccc(c2)CNC(=O)CO4)C(=O)N3)cc1 [Ex-8] | < 1260 | 16 | 8 |
|  |  | COc1ccc(C[C@@H]2NC(=O)[C@H]([C@@H](C)O)NC(=O)[C@@H]3[C@@H]4CCN3C(=O)[C@@H]3Cc5cn(c6ccc(F)cc56)CCCCCCN(Cc5ccc(cc5)CCNC(=O)[C@]5(C)CCCN5C2=O)C(=O)CCC(=O)N[C@@H](C)C(=O)N[C@H](CNC(=O)COCCOCCNC(=O)COCCOCCNC(=O)CC[C@H](NC(=O)CC[C@H](NC(=O)CCOCCOCC[N+](C)(C)CCNC(=O)CCCCCCCCCCCCCCCCC(=O)O)C(=O)O)C(=O)O)C(=O)N[C@@H](Cc2cccc(c2)CNC(=O)CO4)C(=O)N3)cc1 [Ex-9] | < 1260 | < 6 | 7 |
|  |  | COc1ccc(C[C@@H]2NC(=O)[C@H]([C@@H](C)O)NC(=O)[C@@H]3[C@@H]4CCN3C(=O)[C@@H]3Cc5cn(c6ccc(F)cc56)CCCCCCN(Cc5ccc(cc5)CCNC(=O)[C@]5(C)CCCN5C2=O)C(=O)CCC(=O)N[C@@H](C)C(=O)N[C@H](CNC(=O)CCOCCOCC[N+](C)(C)CCNC(=O)COCCOCCNC(=O)COCCOCCNC(=O)CC[C@H](NC(=O)CC[C@H](NC(=O)CCCCCCCCCCCCCCCCC(=O)O)C(=O)O)C(=O)O)C(=O)N[C@@H](Cc2cccc(c2)CNC(=O)CO4)C(=O)N3)cc1 [Ex-10] | < 1260 | 8 | 6 |
| 7 | 6 | COc1ccc(C[C@@H]2NC(=O)[C@H]([C@@H](C)O)NC(=O)[C@@H]3[C@@H]4CCN3C(=O)[C@@H]3Cc5cn(c6ccc(F)cc56)CCCCCCN(Cc5ccc(cc5)CCNC(=O)[C@]5(C)CCCN5C2=O)C(=O)CCC(=O)N[C@@H](C)C(=O)N[C@H](CNC(=O)CCOCCOCC[N+](C)(C)CCNC(=O)CCOCCOCC[N+](C)(C)CCNC(=O)COCCOCCNC(=O)COCCOCCNC(=O)CC[C@H](NC(=O)CC[C@H](NC(=O)CCCCCCCCCCCCCCC(=O)O)C(=O)O)C(=O)O)C(=O)N[C@@H](Cc2cccc(c2)CNC(=O)CO4)C(=O)N3)cc1 [Ex-11] | < 1260 |  |  |
| 14 | 7 | COC(=O)CCCCCCCCCCCCCCCCC(=O)N[C@@H](CCC(=O)NCCOCCOCC(=O)NCCOCCOCC(=O)NCC[N+](C)(C)CCCCCC(=O)NC[C@H]1NC(=O)[C@H](C)NC(=O)CCC(=O)N2CCCCCCn3cc(c4cc(F)ccc43)C[C@@H]3NC(=O)[C@H](Cc4cccc(c4)CNC(=O)CO[C@H]4CCN(C3=O)[C@@H]4C(=O)N[C@@H]([C@@H](C)O)C(=O)N[C@@H](Cc3ccc(OC)cc3)C(=O)N3CCC[C@@]3(C)C(=O)NCCc3ccc(cc3)C2)NC1=O)C(=O)OC [Ex-12] | < 1260 |  |  |
| < 6 | 3 | COc1ccc(C[C@@H]2NC(=O)[C@H]([C@@H](C)O)NC(=O)[C@@H]3[C@@H]4CCN3C(=O)[C@@H]3Cc5cn(c6ccc(F)cc56)CCCCCCN(Cc5ccc(cc5)CCNC(=O)[C@]5(C)CCCN5C2=O)C(=O)CCC(=O)N[C@@H](C)C(=O)N[C@H](CNC(=O)COCCOCC[N+](C)(C)CCOCCNC(=O)COCCOCCNC(=O)COCCOCCNC(=O)CC[C@H](NC(=O)CC[C@H](NC(=O)CCCCCCCCCCCCCCCCC(=O)O)C(=O)O)C(=O)O)C(=O)N[C@@H](Cc2cccc(c2)CNC(=O)CO4)C(=O)N3)cc1 [Ex-13] | < 1260 |  |  |
|  |  | COc1ccc(C[C@@H]2NC(=O)[C@H]([C@@H](C)O)NC(=O)[C@@H]3[C@@H]4CCN3C(=O)[C@@H]3Cc5cn(c6ccc(F)cc56)CCCCCCN(Cc5ccc(cc5)CCNC(=O)[C@]5(C)CCCN5C2=O)C(=O)CCC(=O)N[C@@H](C)C(=O)N[C@H](CNC(=O)CCC[N+](C)(C)CCNC(=O)COCCOCCNC(=O)CC[C@H](NC(=O)CC[C@H](NC(=O)CCCCCCCCCCCCCCCCC(=O)O)C(=O)O)C(=O)O)C(=O)N[C@@H](Cc2cccc(c2)CNC(=O)CO4)C(=O)N3)cc1 [Ex-14] | < 1260 | < 6 | 5 |
|  |  | COc1ccc(C[C@@H]2NC(=O)[C@H]([C@@H](C)O)NC(=O)[C@@H]3[C@@H]4CCN3C(=O)[C@@H]3Cc5cn(c6ccc(F)cc56)CCCCCCN(Cc5ccc(cc5)CCNC(=O)[C@]5(C)CCCN5C2=O)C(=O)CCC(=O)N[C@@H](C)C(=O)N[C@H](CNC(=O)CCOCCOCC[N+](C)(C)CCNC(=O)COCCOCCNC(=O)COCCOCCNC(=O)C[C@H](NC(=O)CCCCCCCCCCCCCCCCC(=O)O)C(=O)O)C(=O)N[C@@H](Cc2cccc(c2)CNC(=O)CO4)C(=O)N3)cc1 [Ex-15] | < 1260 | < 6 | 5 |
|  |  | COc1ccc(C[C@@H]2NC(=O)[C@H]([C@@H](C)O)NC(=O)[C@@H]3[C@@H]4CCN3C(=O)[C@@H]3Cc5cn(c6ccc(F)cc56)CCCCCCN(Cc5ccc(cc5)CCNC(=O)[C@]5(C)CCCN5C2=O)C(=O)CCC(=O)N[C@@H](C)C(=O)N[C@H](CNC(=O)CCOCCOCC[N+](C)(C)CCNC(=O)COCCOCCNC(=O)COCCOCCNC(=O)CC(CC(=O)O)NC(=O)CC[C@H](NC(=O)CCCCCCCCCCCCCCCCC(=O)O)C(=O)O)C(=O)N[C@@H](Cc2cccc(c2)CNC(=O)CO4)C(=O)N3)cc1 (stereo partly drawn) [Ex-16] | < 1260 | 14 | 8 |
| 16 | 18 | COc1ccc(C[C@@H]2NC(=O)[C@H]([C@@H](C)O)NC(=O)[C@@H]3[C@@H]4CCN3C(=O)[C@@H]3Cc5cn(c6ccc(F)cc56)CCCCCCN(Cc5ccc(cc5)CCNC(=O)[C@]5(C)CCCN5C2=O)C(=O)CCC(=O)N[C@@H](C)C(=O)N[C@H](CN(CCC[N+](C)(C)C)C(=O)COCCOCCNC(=O)COCCOCCNC(=O)CC[C@H](NC(=O)CCCCCCCCCCCCCCCCC(=O)O)C(=O)O)C(=O)N[C@@H](Cc2cccc(c2)CNC(=O)CO4)C(=O)N3)cc1 [Ex-17] | < 1260 |  |  |
| 23 | 21 | COc1ccc(C[C@@H]2NC(=O)[C@H]([C@@H](C)O)NC(=O)[C@@H]3[C@@H]4CCN3C(=O)[C@@H]3Cc5cn(c6ccc(F)cc56)CCCCCCN(Cc5ccc(cc5)CCNC(=O)[C@]5(C)CCCN5C2=O)C(=O)CCC(=O)N[C@@H](C)C(=O)N[C@H](CNC(=O)COCCOCCNC(=O)COCCOCCNC(=O)CC[C@H](NC(=O)CCCCCCCCCCCCCCCCC(=O)O)C(=O)O)C(=O)N[C@@H](Cc2cccc(c2)CNC(=O)CO4)C(=O)N3)cc1 [Ex-18] | < 1260 |  |  |
